Converted amounts (≈) assume the structure as drawn.
How the values were obtained:
ileum of a guinea pig = assay: Evaluation of antihistaminic effects in vitro (inhibition of histamine-induced contraction of isolated ileum, Magnus method); assay type: cell-based; details: Cavia porcellus; guinea pig ileum in saline solution at 37°C; histamine diphosphate 0.5 µg/ml; subject compound 0.03 to 10 µg/ml; 50% inhibition of submaximal contraction; read-out: Antihistaminic effect IC50
Method: The effects of Compound I of the present invention and salts thereof as an antiallergic agents can be evaluated by various methods for measuring antiallergic activity, for example by conducting the following tests (1) and (2). • (1) Antihistaminic effect evaluation test in vitro Histamine diphosphate and Compound I of the present invention or salts thereof are added to an ileum of a guinea pig in a saline solution. The concentration (at which the contraction of the ileum by histamine is inhibited by 50%) of Compound I of the present invention is measured. • (2) Histamine₁ receptor (H₁ receptor) in vitro binding inhibition test As a standard material which binds to a H₁ receptor, pyrilamine is used. Compound I of the present invention is added with varying concentrations to a mixture containing a receptor sample prepared by homogenizing a cerebral cortex of a rat and [³H]-pyrilamine, and incubated. From radioactivity of [³H]-pyrilamine which is bound to the receptor sample, the concentration (IC₅₀) of Compound I inhibiting the specific binding of [³H]-pyrilamine to the receptor sample is measured to obtain an inhibition constant (Ki). Compound I of the present invention has a lower degree of migration to brain. Thus, Compound I has less side effects on the central nervous system such as sleepiness, because of its less frequent binding to the H₁ recepter in brain. The extent of migration of Compound I or salts thereof to the brain can be obtained by the following test method 3. • (3) H₁ receptor binding inhibition test ex vivo A cerebral cortex of a mouse orally administered with Compound I of the present invention is homogenized to prepare a receptor sample. The receptor sample is incubated with [³H]-pyrilamine. From the radioactivity of [³H]-pyrilamine bound to the receptor sample, the inhibition of Compound I with respect to the specific biding of pyrilamine to the receptor sample is obtained.
The following experiments were conducted in accordance with the method of R. Magnus (Arch. F.D. Ges. Physiol., 102: 123-151, 1904). Ileums derived from guinea pigs were respectively soaked in a saline solution at 37°C. Then, histamine diphosphate and a subject compound which had been obtained in the Examples shown in Table 1 were added to each saline solution so that the concentrations of histamine diphosphate and the subject compound are 0.5 µg/ml and 0.03 to 10 µg/ml, respectively. The ileum generally contracts by histamine; however, in the case where the subject compound is present, the antagonistic effect of the subject compound on histamine inhibits the contraction of the ileum. The contraction degree of the ileum was measured at each concentration of the added subject compound, and the concentration IC₅₀ of the subject compound which inhibited 50% submaximal contraction of the ileum by histamine was obtained. The submaximal contraction was obtained in the case where the subject compound was not added. […] When the value of IC₅₀ is lower, the subject cmpound has stronger antihistaminic effects.

H₁ receptor = target: T1, H₁ receptor (Mus musculus, UniProt P70174); assay: H1 receptor binding inhibition test ex vivo (migration to the brain, [3H]-pyrilamine binding to cerebral cortex after oral dosing); assay type: in vivo; details: Slc-ddY male mice, 10 mg/kg orally, cerebral cortex removed 60 minutes after administration, [³H]-pyrilamine 4 nM, lower inhibition = lower migration to brain, read-out: [³H]-labeled pyrilamine binding inhibition ex vivo
T1 construct: A cerebral cortex of a mouse orally administered with Compound I of the present invention is homogenized to prepare a receptor sample; from tissue; host or cells: mouse (Slc-ddY, male) cerebral cortex homogenate after oral dosing
Method: The receptor sample is incubated with [³H]-pyrilamine.
Five Slc-ddY male mice were used as one group. First, 10 mg/kg of the compound of the present invention was orally administered to each mouse. The mouse were killed by decapitation 60 minutes after the administration and each cerebral cortex was removed. Each cerebral cortex was frozen on dry ice and kept in a refrigerator at -80°C. Before the experiment, each cerebral cortex was homogenized with about 10 times its volume of 50 mM of Na/K phosphate buffer (pH 7.5). A mixture of each cerebral cortex was further diluted 6 times and used as a receptor sample. A mixture of each receptor sample and [³H]-pyrilamine (4 nM) was incubated at 25°C for 30 minutes. The reaction was stopped by dilution and filtration. The radioactivity of [³H]-pyrilamine bound to the receptor sample on the filter paper was measured by a liquid scintillation counter. The specific binding of [³H]-pyrilamine to the receptor sample was obtained by subtracting the non-specific binding from the total bindings. The non-specific binding was obtained under the conditions of containing 10 µM of non-radioactive pyrilamine. The amount of protein was measured by DC protein assay (Biolad), and the inhibition of the compound of the present invention to the specific binding of [³H]-pyrilamine per 1 mg of protein was measured. […]

T1 sequence (P70174 whole entry): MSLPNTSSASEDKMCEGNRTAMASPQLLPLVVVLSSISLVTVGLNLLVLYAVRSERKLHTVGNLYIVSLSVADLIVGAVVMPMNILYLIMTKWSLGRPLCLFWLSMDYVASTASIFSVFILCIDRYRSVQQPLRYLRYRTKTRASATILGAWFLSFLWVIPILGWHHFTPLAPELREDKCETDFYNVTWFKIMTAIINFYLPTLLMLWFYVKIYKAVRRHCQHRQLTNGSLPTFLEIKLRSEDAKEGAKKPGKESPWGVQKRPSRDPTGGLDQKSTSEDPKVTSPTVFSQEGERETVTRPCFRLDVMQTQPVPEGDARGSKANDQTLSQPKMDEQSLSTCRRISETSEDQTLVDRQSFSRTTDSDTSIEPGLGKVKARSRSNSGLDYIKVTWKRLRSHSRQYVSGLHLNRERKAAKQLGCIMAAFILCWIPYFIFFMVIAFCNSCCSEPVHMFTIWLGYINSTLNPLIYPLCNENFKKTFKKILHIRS

Row | Structure (SMILES) | IC50 (ileum of a guinea pig) [µg/mL] | inhibition at 10 mg/kg (H₁ receptor) [%]
1 | O=C(NCCCN1CCN(C(c2ccc(F)cc2)c2ccc(F)cc2)CC1)N1CCN(c2ccccn2)CC1 [Example 43] | 0.216 (≈ 0.404 µM) | 14
2 | CC(C)(C)OC(=O)N1CCN(C(=O)NCCCN2CCC(OC(c3ccccc3)c3ccccc3)CC2)CC1 [Example 70] | 0.0889 (≈ 0.166 µM) | 2
3 | O=C(NCCCN1CCC(OC(c2ccccc2)c2ccccc2)CC1)N1CCN(S(=O)(=O)c2cccc3cccnc23)CC1 [Example 55] | 1.14 (≈ 1.82 µM) | 0
4 | O=C1CCCN1C(=O)NCCCCCN1CCN(C(c2ccccc2)c2ccccc2)CC1 [Example 79] | 0.042 (≈ 0.0936 µM) | 5
5 | O=C1CSCCN1C(=O)NCCCN1CCC(OC(c2ccc(F)cc2)c2ccc(F)cc2)CC1 [Example 49] | 0.0244 (≈ 0.0484 µM) | 9
6 | O=C(NCCCN1CCC(=C(c2ccccc2)c2ccccc2)CC1)N1CCN(c2ncccn2)CC1 [Example 5] | 0.442 (≈ 0.89 µM) | 0
7 | O=C(NCCCN1CCC(OC(c2ccccc2)c2ccccc2)CC1)N1CCN(S(=O)(=O)c2cccnc2)CC1 [Example 61] | 0.196 (≈ 0.339 µM) | 6
8 | CCOC(=O)N1CCN(C(=O)NCCCN2CCC(OC(c3ccc(F)cc3)c3ccc(F)cc3)CC2)CC1 [Example 51] | 0.427 (≈ 0.784 µM) | 0
9 | O=C(NCCCN1CCC(OC(c2ccccc2)c2ccccc2)CC1)N1CCN(c2ncccn2)CC1 [Example 15] | 0.0595 (≈ 0.116 µM) | 6
10 | O=C(NCCCN1CCC(OC(c2ccc(F)cc2)c2ccc(F)cc2)CC1)N1CCN(c2ccccn2)CC1 [Example 50] | 0.0817 (≈ 0.149 µM) | 2

Next, values leading:

Row | IC50 (ileum of a guinea pig) [µg/mL] | inhibition at 10 mg/kg (H₁ receptor) [%] | Structure (SMILES)
11 | 22.4 (≈ 47.4 µM) |  | CC(C)(C)c1ccc(C(O)CCCN2CCC(C(O)(c3ccccc3)c3ccccc3)CC2)cc1 (stereo not drawn) [Terfenadine, reference compound]
12 | 1.38 (≈ 2.26 µM) | 0 | O=C(NCCCN1CCC(=C(c2ccccc2)c2ccccc2)CC1)N1CCN(S(=O)(=O)c2cccc3cccnc23)CC1 [Example 56]
13 | 0.621 (≈ 1.03 µM) | 6 | O=C(NCCCN1CCC(OC(c2ccccc2)c2ccccc2)CC1)N1CCN(C(c2ccccc2)c2ccccc2)CC1 [Example 45]
14 | 1 (≈ 2.34 µM) | 17 | O=c1[nH]c2ccccc2n1CCCN1CCN(C(c2ccccc2)c2ccccc2)CC1 [Oxatoamide, reference compound]
15 | 1.12 (≈ 2.16 µM) | 7 | CC(C)(C)OC(=O)N1CCN(C(=O)NCCCN2CCC(=C(c3ccccc3)c3ccccc3)CC2)CC1 [Example 71]
16 | 1.76 (≈ 3.66 µM) | 0 | O=C(NCCN1CCC(=C(c2ccccc2)c2ccccc2)CC1)N1CCN(c2ccccn2)CC1 [Example 53]
17 | 0.119 (≈ 0.246 µM) | 4 | O=C(NCCN1CCN(C(c2ccccc2)c2ccccc2)CC1)N1CCN(c2ccccn2)CC1 [Example 39]
